The target of assay [1] is PI3Kδ (p110δ/p85α) Recombinant Human Protein (Homo sapiens (Human), UniProt O00329). Nature of the assay: PI3Kδ Scintillation Proximity Assay. Type of assay: biochemical. The method in brief: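 IC50 was fitted to percent solvent-control activity from SPA scintillation counts after WGA bead capture of 33P-labelled lipid product. Reaction: 120 min, room temperature, 3.4 nM p110δ/p85α, 20 μM PIP2, 2 μM ATP with tracer, MOPS pH 6.7 buffer containing MgCl2, DTT, CHAPS, 2% DMSO.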
Chain of PI3Kδ (p110δ/p85α) Recombinant Human Protein (O00329 whole entry): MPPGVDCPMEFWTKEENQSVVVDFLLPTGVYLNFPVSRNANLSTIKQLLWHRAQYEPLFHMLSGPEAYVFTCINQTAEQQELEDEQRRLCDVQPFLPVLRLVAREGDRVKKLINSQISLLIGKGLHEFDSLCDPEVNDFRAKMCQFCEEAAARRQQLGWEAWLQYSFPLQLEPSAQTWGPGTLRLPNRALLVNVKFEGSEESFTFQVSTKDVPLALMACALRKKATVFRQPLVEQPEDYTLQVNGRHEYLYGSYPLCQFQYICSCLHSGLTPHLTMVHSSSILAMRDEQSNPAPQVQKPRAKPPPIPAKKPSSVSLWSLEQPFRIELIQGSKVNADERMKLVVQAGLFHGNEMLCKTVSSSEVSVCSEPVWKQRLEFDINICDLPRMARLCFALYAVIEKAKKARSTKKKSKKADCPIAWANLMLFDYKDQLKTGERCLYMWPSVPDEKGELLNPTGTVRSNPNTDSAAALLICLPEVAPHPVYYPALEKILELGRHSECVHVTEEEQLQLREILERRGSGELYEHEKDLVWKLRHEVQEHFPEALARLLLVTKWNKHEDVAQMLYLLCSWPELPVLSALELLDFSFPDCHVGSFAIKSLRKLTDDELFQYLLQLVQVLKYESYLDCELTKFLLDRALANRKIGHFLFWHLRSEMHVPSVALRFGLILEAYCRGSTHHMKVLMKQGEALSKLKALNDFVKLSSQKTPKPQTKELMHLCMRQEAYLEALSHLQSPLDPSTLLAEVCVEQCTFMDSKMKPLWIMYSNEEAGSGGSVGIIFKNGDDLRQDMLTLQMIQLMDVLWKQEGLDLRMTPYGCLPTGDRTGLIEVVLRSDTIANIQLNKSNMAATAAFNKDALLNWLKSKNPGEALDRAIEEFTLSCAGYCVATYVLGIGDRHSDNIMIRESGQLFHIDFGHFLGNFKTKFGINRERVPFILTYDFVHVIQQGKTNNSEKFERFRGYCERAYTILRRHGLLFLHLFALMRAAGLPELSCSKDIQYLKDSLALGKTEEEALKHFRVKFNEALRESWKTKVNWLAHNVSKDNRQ
Chain of PI3Kδ (p110δ/p85α) Recombinant Human Protein (P27986 whole entry partner): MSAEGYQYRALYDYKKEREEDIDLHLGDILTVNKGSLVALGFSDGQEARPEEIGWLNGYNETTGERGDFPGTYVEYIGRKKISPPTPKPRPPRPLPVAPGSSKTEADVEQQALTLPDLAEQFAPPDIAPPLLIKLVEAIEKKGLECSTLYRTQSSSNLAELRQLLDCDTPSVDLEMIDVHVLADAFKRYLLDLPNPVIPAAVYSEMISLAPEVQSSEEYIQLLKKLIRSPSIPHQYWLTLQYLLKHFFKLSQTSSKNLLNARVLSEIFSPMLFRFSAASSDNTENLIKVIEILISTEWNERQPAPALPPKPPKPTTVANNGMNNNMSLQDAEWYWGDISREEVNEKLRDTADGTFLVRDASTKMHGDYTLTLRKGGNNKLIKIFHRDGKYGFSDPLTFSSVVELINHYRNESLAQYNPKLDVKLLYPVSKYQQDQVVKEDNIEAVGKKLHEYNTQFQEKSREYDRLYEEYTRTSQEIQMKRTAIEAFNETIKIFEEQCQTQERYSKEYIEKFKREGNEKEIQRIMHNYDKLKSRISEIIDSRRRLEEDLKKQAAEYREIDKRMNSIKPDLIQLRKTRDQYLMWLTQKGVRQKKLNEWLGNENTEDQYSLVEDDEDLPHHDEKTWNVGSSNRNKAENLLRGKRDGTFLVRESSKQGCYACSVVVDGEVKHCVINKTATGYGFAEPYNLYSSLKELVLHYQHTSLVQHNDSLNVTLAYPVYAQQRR

In assay [2] the target is PI3Kγ (p110γ) Recombinant Human Protein (Homo sapiens (Human), UniProt P48736). Nature of the assay: PI3K-γ Scintillation Proximity Assay. Type of assay: biochemical. Conditions: read-out: PI3Kγ IC50. An outline of the steps:
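Radiometric SPA readout: […] bound to WGA beads after overnight shaking, IC50 derived from % activity of DMSO control. Reaction used human p110γ, 2 μM ATP, 20 μM PIP2, pH 6.7 MOPS buffer with MgCl2, DTT, CHAPS, 2% DMSO, room temperature.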
(In general: Scintillation proximity formats need no separation of bound from free tracer.)

Assay [3] has as its system Phosphorylated Ribosomal Protein S6 (RPS6). Kind of assay: THP-1 RPS6 ELISA Assay. It counts as cell-based, Human. The settings on record: THP-1 cells, read-out: PI3Kγ_THP1_RPS6_ELISA IC50. An outline of the steps:
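IC50 values come from a curve of percent inhibition against log compound concentration, using phospho-RPS6 ELISA (450 nm) on THP-1 lysates. Cells were serum-starved overnight, exposed to compound for 2 h at 37 °C, then challenged 15 min with 10 nM MCP-1.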
A general note: An ELISA detects its analyte on a solid surface through an enzyme-linked reagent.

Counter-ions that a name gives are not always drawn. Like-named read-outs stand apart in the source and are kept apart here. Where only a bound is given, the exact number is not on record here.

Chain of PI3Kγ (p110γ) Recombinant Human Protein (P48736 whole entry): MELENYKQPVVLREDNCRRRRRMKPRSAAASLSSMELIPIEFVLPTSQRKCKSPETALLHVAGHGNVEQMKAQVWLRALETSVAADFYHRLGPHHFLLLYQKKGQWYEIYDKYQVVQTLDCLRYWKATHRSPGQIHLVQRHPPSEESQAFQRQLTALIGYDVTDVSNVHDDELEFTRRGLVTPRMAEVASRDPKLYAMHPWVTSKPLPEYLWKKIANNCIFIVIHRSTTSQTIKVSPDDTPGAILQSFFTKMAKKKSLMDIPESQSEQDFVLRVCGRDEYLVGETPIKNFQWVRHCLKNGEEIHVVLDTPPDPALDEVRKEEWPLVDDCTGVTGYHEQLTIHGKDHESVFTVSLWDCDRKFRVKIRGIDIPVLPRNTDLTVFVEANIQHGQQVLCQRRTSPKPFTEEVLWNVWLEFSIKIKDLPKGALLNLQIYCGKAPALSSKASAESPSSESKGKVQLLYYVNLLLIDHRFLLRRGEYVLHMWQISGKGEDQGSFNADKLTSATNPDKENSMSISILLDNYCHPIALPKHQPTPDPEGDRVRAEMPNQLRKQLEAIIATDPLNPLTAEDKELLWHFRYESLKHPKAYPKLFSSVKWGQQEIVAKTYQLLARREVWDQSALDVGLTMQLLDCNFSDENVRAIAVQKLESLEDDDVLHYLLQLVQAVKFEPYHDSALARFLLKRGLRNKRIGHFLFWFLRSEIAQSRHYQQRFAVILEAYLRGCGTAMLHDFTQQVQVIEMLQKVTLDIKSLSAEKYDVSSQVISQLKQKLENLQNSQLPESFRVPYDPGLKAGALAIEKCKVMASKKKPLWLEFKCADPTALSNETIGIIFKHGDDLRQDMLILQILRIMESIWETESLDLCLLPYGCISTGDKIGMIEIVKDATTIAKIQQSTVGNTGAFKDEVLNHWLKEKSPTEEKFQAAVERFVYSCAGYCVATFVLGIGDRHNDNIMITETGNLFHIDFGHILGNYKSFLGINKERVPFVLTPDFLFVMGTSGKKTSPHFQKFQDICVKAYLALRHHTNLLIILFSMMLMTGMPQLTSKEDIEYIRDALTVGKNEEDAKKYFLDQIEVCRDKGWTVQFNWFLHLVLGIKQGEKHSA

As a reminder, the IC50 is the concentration that inhibits the measured activity by half. For the molecule `Cc1ccc(S(=O)(=O)N[C@H]2CC[C@H](O)CC2)cc1-c1cnc2c(N)cc(-c3ccnn3C)cn12` [Example 10, 3-[8-Amino-6-(1-methyl-1H-pyrazol-5-yl)imidazo[1,2-a]pyridin-3-yl]-N-(trans-4-hydroxycyclohexyl)-4-methylbenzenesulfonamide bis(trifluoroacetate)], the IC50 in assay [1] was 100 to 500 nM; in assay [2], below 100 nM; in assay [3] (Homo sapiens), above 1000 nM.

Consider `Cc1cc(-c2cn3c(-c4cc(S(C)(=O)=O)ccc4C)cnc3c(N)n2)c(F)cn1` [Example 489, 6-(5-Fluoro-2-methylpyridin-4-yl)-3-(2-methyl-5-(methylsulfonyl)phenyl)imidazo[1,2-a]pyrazin-8-amine trifluoroacetate], for which the IC50 in assay [1] is 100 to 500 nM; in assay [2], below 100 nM; in assay [3] (Homo sapiens), 100 to 500 nM.

With `Cc1ccc(S(=O)(=O)N[C@H]2CC[C@H](NC(=O)OC(C)(C)C)CC2)cc1-c1cnc2c(N)nccn12` [Example 55, tert-Butyl [trans-4-({[3-(8-aminoimidazo[1,2-a]pyrazin-3-yl)-4-methylphenyl]sulfonyl}amino)cyclohexyl]carbamate], the IC50 in assay [1] was above 2000 nM; in assay [2], below 100 nM; in assay [3] (Homo sapiens), above 1000 nM.

Regarding `Cc1nc(N)c2ncc(-c3cc(S(=O)(=O)NCC4(O)CCC4)ccc3C)n2n1` [Example 269, 3-(4-Amino-2-methylimidazo[1,2-f][1,2,4]triazin-7-yl)-N-((1-hydroxycyclobutyl)methyl)-4-methylbenzenesulfonamide trifluoroacetate salt], the IC50 was 100 to 500 nM in assay [1], below 100 nM in assay [2] and 100 to 500 nM in assay [3].

As for `COc1nccc(-c2cn3c(-c4cc(S(C)(=O)=O)ccc4C)cnc3c(N)n2)c1F` [Example 483, 6-(3-Fluoro-2-methoxypyridin-4-yl)-3-(2-methyl-5-(methylsulfonyl)phenyl)imidazo[1,2-a]pyrazin-8-amine trifluoroacetate], the figures for the IC50 in assay [1], in assay [2] and in assay [3] (Homo sapiens) were below 100 nM, below 100 nM and above 1000 nM, respectively.

With `Cc1nc(N)c2ncc(-c3cc(S(=O)(=O)NC45CCC(C#N)(C4)C5)ccc3C)n2n1` [Example 265, 3-(4-Amino-2-methylimidazo[1,2-f][1,2,4]triazin-7-yl)-N-(4-cyanobicyclo[2.1.1]hexan-1-yl)-4-methylbenzenesulfonamide trifluoroacetate salt], the IC50 in assay [1], in assay [2] and in assay [3] was below 100 nM in each case.

Turning to `Cc1ccc(S(=O)(=O)NC23CC(Cn4ccnc4)(C2)C3)cc1-c1cnc2c(N)nc(C(F)(F)F)cn12` [Example 284, N-(3-((1H-imidazol-1-yl)methyl)bicyclo[1.1.1]pentan-1-yl)-3-(8-amino-6-(trifluoromethyl)imidazo[1,2-a]pyrazin-3-yl)-4-methylbenzenesulfonamide trifluoroacetate salt], the IC50 in assay [1] was 100 to 500 nM; in assay [2], below 100 nM; in assay [3] (Homo sapiens), 100 to 500 nM.

For the molecule `COC(=O)NC12CC(NS(=O)(=O)c3ccc(C)c(-c4cnc5c(N)ncnn45)c3)(C1)C2` [Example 115, Methyl 3-(3-(4-aminoimidazo[1,2-f][1,2,4]triazin-7-yl)-4-methylphenylsulfonamido)bicyclo[1.1.1]pentan-1-ylcarbamate trifluoroacetate salt], the IC50 was 500 to 2000 nM in assay [1], below 100 nM in assay [2] and 100 to 500 nM in assay [3].

As for `Cc1ccc(S(=O)(=O)N[C@H]2CC[C@@H](C#N)C2)cc1-c1cnc2c(N)nc(C(F)(F)F)nn12` (single isomer, unassigned) [Example 321], the IC50 in assay [1], in assay [2] and in assay [3] was below 100 nM throughout.

In the case of `Cc1ccc(S(=O)(=O)N2C(C)COCC2C)cc1-c1cnc2c(N)ncnn12` (stereo not drawn) [Example 155, 7-(5-((3,5-dimethylmorpholino)sulfonyl)-2-methylphenyl)imidazo[2,1-f][1,2,4]triazin-4-amine], the IC50 in assay [1] is 100 to 500 nM; in assay [2] it was below 100 nM; in assay [3] (Homo sapiens) it was 100 to 500 nM.

Take `N#CC12CCC(NS(=O)(=O)c3cccc(-c4cnc5c(N)nc(C(F)(F)F)nn45)c3)(C1)C2` [Example 415, 3-(4-Amino-2-(trifluoromethyl)imidazo[1,2-f][1,2,4]triazin-7-yl)-N-(4-cyanobicyclo[2.1.1]hexan-1-yl)benzenesulfonamide trifluoroacetate salt]: the IC50 is 100 to 500 nM in assay [1], below 100 nM in assay [2] and below 100 nM in assay [3].

Consider `Cc1ccc(S(=O)(=O)N[C@H]2C[C@H](CO)C2)cc1-c1cnc2c(N)ncnn12` [Example 60, 3-(4-Aminoimidazo[1,2-f][1,2,4]triazin-7-yl)-N-[trans-3-(hydroxymethyl)cyclobutyl]-4-methylbenzenesulfonamide], for which the IC50 is 100 to 500 nM in assay [1], below 100 nM in assay [2] and 100 to 500 nM in assay [3].

`Cc1ccc(S(=O)(=O)NC23CC(C#N)(C2)C3)cc1-c1cnc2c(N)ncnn12` [Example 250, 3-(4-Aminoimidazo[2,1-f][1,2,4]triazin-7-yl)-N-(3-cyanobicyclo[1.1.1]pentan-1-yl)-4-methylbenzenesulfonamide]: the IC50 in assay [1] is 100 to 500 nM; in assay [2] it was below 100 nM; in assay [3] (Homo sapiens) it was 100 to 500 nM.

Turning to `Cc1ccc(S(=O)(=O)N2CCC3(CCCO3)CC2)cc1-c1cnc2c(N)ncnn12` [Example 194, 7-(5-((1-Oxa-8-azaspiro[4.5]decan-8-yl)sulfonyl)-2-methylphenyl)imidazo[2,1-f][1,2,4]triazin-4-amine], the IC50 in assay [1] is 500 to 2000 nM; in assay [2], below 100 nM; in assay [3] (Homo sapiens) it was 100 to 500 nM.

For `Cc1ccc(S(=O)(=O)NC23CCC(C#N)(C2)C3)cc1-c1cnc2c(N)nc(C(F)(F)F)cn12` [Example 281, 3-(8-Amino-6-(trifluoromethyl)imidazo[1,2-a]pyrazin-3-yl)-N-(4-cyanobicyclo[2.1.1]hexan-1-yl)-4-methylbenzenesulfonamide trifluoroacetate salt], the IC50 in assay [1] was 100 to 500 nM; in assay [2] it was below 100 nM; in assay [3] (Homo sapiens), 100 to 500 nM.

`Cc1ccc(S(=O)(=O)NC2CCC(C)(O)CC2)cc1-c1cnc2c(N)nccn12` (stereo not drawn) [Example 85, 3-(8-aminoimidazo[1,2-a]pyrazin-3-yl)-N-(trans-4-hydroxy-4-methylcyclohexyl)-4-methylbenzenesulfonamide]: the IC50 in assay [1] is 500 to 2000 nM; in assay [2], below 100 nM; in assay [3], 100 to 500 nM.

As for `Cc1ccc(S(=O)(=O)NC23CCC(C#N)(C2)C3)cc1-c1cnc2c(N)ncnn12` [Example 251, 3-(4-Aminoimidazo[2,1-f][1,2,4]triazin-7-yl)-N-(4-cyanobicyclo[2.1.1]hexan-1-yl)-4-methylbenzenesulfonamide trifluoroacetate salt], the concentration for half-maximal inhibition (IC50) in assay [1] was 100 to 500 nM; in assay [2] it was below 100 nM; in assay [3] (Homo sapiens), below 100 nM.

Turning to `Cc1nc(N)c2ncc(-c3ccc(F)c(S(=O)(=O)NC45CCC(C#N)(C4)C5)c3)n2n1` [Example 387, 5-(4-Amino-2-methylimidazo[1,2-f][1,2,4]triazin-7-yl)-N-(4-cyanobicyclo[2.1.1]hexan-1-yl)-2-fluorobenzenesulfonamide trifluoroacetate salt], the IC50 was 100 to 500 nM in assay [1], below 100 nM in assay [2] and below 100 nM in assay [3].

Turning to `Cc1ccc(S(=O)(=O)NCC2CCN(C(=O)C3CC3)CC2)cc1-c1cnc2c(N)nccn12` [Example 86, 3-(8-aminoimidazo[1,2-a]pyrazin-3-yl)-N-((1-(cyclopropanecarbonyl)piperidin-4-yl)methyl)-4-methylbenzenesulfonamide], the IC50 was 500 to 2000 nM in assay [1], below 100 nM in assay [2] and above 1000 nM in assay [3].

With `Cc1ccc(S(=O)(=O)N2CCC3(CCO3)C2)cc1-c1cnc2c(N)ncnn12` (stereo not drawn) [Example 205, 7-(5-((1-Oxa-6-azaspiro[3.4]octan-6-yl)sulfonyl)-2-methylphenyl)imidazo[2,1-f][1,2,4]triazin-4-amine], the IC50 in assay [1] is 500 to 2000 nM; in assay [2], below 100 nM; in assay [3] (Homo sapiens), above 1000 nM.

`Cc1ccc(S(=O)(=O)NC23CCC(C(=O)O)(C2)C3)cc1-c1cnc2c(N)ncnn12` [Example 109, 4-(3-(4-Aminoimidazo[1,2-f][1,2,4]triazin-7-yl)-4-methylphenylsulfonamido)bicyclo[2.1.1]hexane-1-carboxylic acid]: the IC50 in assay [1] was 500 to 2000 nM; in assay [2] it was below 100 nM; in assay [3], above 1000 nM.

With `Cc1cccc(-c2cn3c(-c4cc(S(=O)(=O)N[C@H]5CC[C@H](O)CC5)ccc4C)cnc3c(N)n2)c1` [Example 19, 3-[8-Amino-6-(3-methylphenyl)imidazo[1,2-a]pyrazin-3-yl]-N-(trans-4-hydroxycyclohexyl)-4-methylbenzenesulfonamide], the IC50 was 100 to 500 nM in assay [1], below 100 nM in assay [2] and below 100 nM in assay [3] (Homo sapiens).

These data come from US10479795B2 (Incyte Corporation, priority 2016, dated 2019).
